Experimental data: patent publication US5635391A, “Isolated DNA encoding a nitrilase polypeptide, hosts containing, and expression thereof optionally assisted by a E. coli GroE chaperone polypeptide” (priority 1992, dated 1997)

Experiments:
purified nitrilase = biological target: T1, purified nitrilase (Comamonas testosteroni, UniProt Q59329); test: Relative activity of the purified nitrilase on various nitriles; format: biochemical, Comamonas testosteroni sp.; conditions: acetate buffer 10 mM, pH 4; substrate 10 mM; 25° C.
T1 construct: about 280 kDa oligomer of about 38 kDa subunits
Protocol: The activities of the purified nitrilase were measured on adiponitrile, 5-cyanovaleramide, 5-cyanovaleric acid, benzonitrile, propionitrile and acrylonitrile.
COMMON CONDITIONS: acetate buffer=10 mM, pH 4; substrate=10 mM; volume=3 ml; T=25° C.; reaction time=1 or 3 h; proteins: from 5 to 30 μg/ml.

E. coli TG1 = test: Nitrilase activity of control strain E. coli TG1; format: cell-based; conditions: no IPTG, whole cells, DW 15.5 g/l, 1 ml, substrate 50 mM, 25° C.
Protocol: (§1) The activities of these strains, induced or non-induced, are measured on adiponitrile and 5-cyanovalerate at different pH values and are compared with the negative control strains: E. coli TG1, E. coli TG1 (pXL2035) and Pseudomonas putida G2081.
(§2) The cultures are carried out under the conditions described in Table 4. During the exponential growth phase, one of the two cultures of the recombinant strain is induced with 1 mM IPTG; after 2 h at 37° C., this culture is treated.
(§3) The conditions of the specific activity measurements and the results are collated in Table 5.
(§4) COMMON CONDITIONS: [substrate]=50 mM; T=25° C.; buffer 50 mM; kinetics over 90 min for 1 to 3 and over 120 min for 4 to 8.
(§5) ABBREVIATIONS: W=whole cells; S=sonicated cells; Ua=μmols of cyanovalerate produced/h; Ub=μmols of adipate produced/h; AdN=adiponitrile; CVA=5-cyanovalerate. DW=dry weight.

E. coli TG1 pXL2035,2158 = test: Nitrilase activity of recombinant strain E. coli TG1 pXL2035,2158; format: cell-based; conditions: DW 0.2 g/l; 1 ml; pH 7.0; substrate 50 mM
Protocol: as §1, §2, §3, §4, §5

P. putida G2081 pXL2169 = test: Nitrilase activity of recombinant strain P. putida G2081 pXL2169; format: cell-based, Pseudomonas putida; conditions: no IPTG; whole cells; DW 0.25 g/l; 1 ml; pH 7.0; substrate 50 mM
Protocol: as §1, §2, §3, §4, §5

E. coli TG1 pXL2158 = test: Nitrilase activity of recombinant strain E. coli TG1 pXL2158; format: cell-based; conditions: DW 1.25 g/l; 1 ml; pH 7.0; substrate 50 mM
Protocol: as §1, §2, §3, §4, §5

E. coli TG1 pXL2087 = test: Nitrilase activity of recombinant strain E. coli TG1 pXL2087; format: cell-based; conditions: substrate 50 mM
Protocol: as §1, §2, §3, §4, §5

E. coli PXL2158 + 2035 [1] = test: Hydrolysis of methiononitrile with free and resin-fixed cells of E. coli PXL2158 + 2035; format: cell-based; conditions: test 15; free cells; dry cells 1.3 g/l; MetCN 50 mM; pH7; 28° C.
Protocol: The E. coli PXL 2158+2035 free cells are fixed on resin according to the technique described in U.S. Pat. No. 4,732,851, so as to form a biocatalyst.
CONDITIONS: volume=5 ml; potassium phosphate buffer=100 mM pH7, [MetCN]=50 mM; T 28° C.; kinetics over 3 h; DB=dry biocatalyst; DC=dry cells.
Two methiononitrile batches were tested: purified methiononitrile in the form of a sulfate and free methiononitrile.
CONDITIONS: volume=5 ml; potassium phosphate buffer=100 mM pH7; T 28° C.; kinetics over 3 h; *=percent with respect to the formed acid; DB=dry biocatalyst; DC=dry cells.

E. coli PXL2158 + 2035 [2] = test: Hydrolysis of methiononitrile with E. coli PXL2158 + 2035 in suspension; format: cell-based; conditions: for Initial specific activity: whole cells, DW 1.4 g/l, pH 7, 28° C.
Protocol: (§6) The recombinant strains used in this example are those from E. coli TG1, integrating the plasmids PXL2158 and PXL2035 described above and containing the nitrilase gene of Comamonas testosteroni.
(§7) Tests 9 to 13 show the nitrilase activity at 28° C., of these recombinant strains with respect to the methiononitrile, according to various operating conditions. The strain culture is performed as explained in example 6.1.The following Table 7 summarizes the conditions and the results of tests 9 to 13.

E. coli PXL2158 = test: Hydrolysis of methiononitrile with E. coli PXL2158 in suspension; format: cell-based; conditions: test 9; whole cells; MetCN 100 mM; DW 17.2 g/l; pH 7; 28° C.
Protocol: as §6, §7

T1 sequence (Q59329 entry or part of it): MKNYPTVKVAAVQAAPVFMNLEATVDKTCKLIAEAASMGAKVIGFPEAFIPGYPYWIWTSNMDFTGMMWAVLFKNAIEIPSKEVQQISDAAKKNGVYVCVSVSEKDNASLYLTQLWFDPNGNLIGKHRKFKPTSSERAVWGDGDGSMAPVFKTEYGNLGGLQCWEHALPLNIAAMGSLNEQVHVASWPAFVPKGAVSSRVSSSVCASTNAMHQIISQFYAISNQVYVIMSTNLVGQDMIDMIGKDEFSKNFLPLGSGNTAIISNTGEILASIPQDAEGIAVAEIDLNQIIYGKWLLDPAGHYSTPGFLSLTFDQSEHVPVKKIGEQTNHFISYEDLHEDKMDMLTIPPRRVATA

## N#Cc1ccccc1 [Benzonitrile, benzonitrile]
Purified nitrilase
  RELATIVE ACTIVITY: 4%

## N#CCCCCC(=O)O [5-Cyanovalerate, 5-cyanovalerate]
E. coli TG1; pH 5.2
  Activity Ub: 0 μmols of adipate produced/h
E. coli TG1; pH 7.0
  Activity Ub: 0 μmols of adipate produced/h
E. coli TG1 pXL2035,2158
  Activity Ub: 70 μmols of adipate produced/h
P. putida G2081 pXL2169
  Activity Ua: 130 μmols of cyanovalerate produce
E. coli TG1 pXL2158
  Activity Ub: 8.3 μmols of adipate produced/h
E. coli TG1 pXL2087; +IPTG, sonicated cells, DW 1.4 g/l, 1 ml, pH 5.2
  Activity Ub: 25 μmols of adipate produced/h
E. coli TG1 pXL2087; +IPTG, sonicated cells, DW 1.4 g/l, 2 ml, pH 7.0
  Activity Ub: 8 μmols of adipate produced/h
E. coli TG1 pXL2087; +IPTG, whole cells, DW 1.4 g/l, 1 ml, pH 4.0
  Activity Ub: 28 μmols of adipate produced/h
E. coli TG1 pXL2087; +IPTG, whole cells, DW 1.4 g/l, 1 ml, pH 5.2
  Activity Ub: 27 μmols of adipate produced/h
E. coli TG1 pXL2087; +IPTG, whole cells, DW 1.4 g/l, 2 ml, pH 7.0
  Activity Ub: 8 μmols of adipate produced/h
E. coli TG1 pXL2087; no IPTG, sonicated cells, DW 1.0 g/l, 1 ml, pH 5.2
  Activity Ub: 13 μmols of adipate produced/h
E. coli TG1 pXL2087; no IPTG, sonicated cells, DW 1.0 g/l, 1 ml, pH 7.0
  Activity Ub: 3.2 μmols of adipate produced/h
E. coli TG1 pXL2087; no IPTG, whole cells, DW 1.2 g/l, 2 ml, pH 4.0
  Activity Ub: 10 μmols of adipate produced/h
E. coli TG1 pXL2087; no IPTG, whole cells, DW 1.2 g/l, 2 ml, pH 5.2
  Activity Ub: 14 μmols of adipate produced/h
E. coli TG1 pXL2087; no IPTG, whole cells, DW 1.2 g/l, 2 ml, pH 7.0
  Activity Ub: 3.4 μmols of adipate produced/h

## C=CC#N [Acrylonitrile, acrylonitrile]
Purified nitrilase
  RELATIVE ACTIVITY: 23%

## N#CCCCCC(N)=O [5-Cyanovaleramide, 5-cyanovaleramide]
Purified nitrilase
  RELATIVE ACTIVITY: 28%

## CCC#N [Propionitrile, propionitrile]
Purified nitrilase
  RELATIVE ACTIVITY: 6%

## CSCCC(N)C#N (stereo not drawn) [MetCN, methiononitrile]
E. coli PXL2158 + 2035 [1]
  Specific Initial Activity: 63 μmol/hx mg DC
E. coli PXL2158 + 2035 [2]; comment on Table 7
  nitrilase activity: about 80 μmol of MEtCN/hxmg of DW
E. coli PXL2158 + 2035 [2]; test 10, MetCN 50 mM
  Initial specific activity: 77 μmol/h x mg of DW
E. coli PXL2158 + 2035 [2]; test 11, MetCN 50 mM
  Initial specific activity: 62 μmol/h x mg of DW
E. coli PXL2158 + 2035 [2]; test 12, MetCN 100 mM
  Initial specific activity: 73 μmol/h x mg of DW
E. coli PXL2158 + 2035 [2]; test 13, MetCN 200 mM
  Initial specific activity: 61 μmol/h x mg of DW
E. coli PXL2158 + 2035 [2]; tests 9 and 10
  activity relative to E. coli PXL2158 alone: ~10 times
E. coli PXL2158
  Initial specific activity: 8 μmol/h x mg of DW
